Experimental data from PMC9032693, “Biological Evaluation of New Thienopyridinium and Thienopyrimidinium Derivatives as Human Choline Kinase Inhibitors” (Pharmaceutics, 2022).

What was measured:
Jurkat = assay: Antiproliferative activity, resazurin assay, 72 h; assay type: cell-based, human
Experimental: (§1) Human cervix carcinoma (HeLa), Non-small lung adenocarcinoma (A549), Colon adenocarcinoma (HT29), and human triple negative breast cancer (MDA-MB-231) were cultured in Dulbecco’s modified Eagle’s media (DMEM). B-acute lymphoblastic leukemia (RS4;11 and SEM), T-acute lymphoblastic leukemia (Jurkat), and human promyelocytic cells (HL-60), were cultured in RPMI-1640 medium. Both media were purchased from Gibco, Life Technologies (Milan, Italy) and supplemented with 10% Fetal Bovine Serum (FBS, Invitrogen, Milan, Italy,). Every six months, each cell line was checked for the presence of mycoplasma by RT-PCR.
(§2) Stock solutions (10 mM) of the different compounds were made in DMSO. Cancer cells were seeded in tissue-treated, flat bottom, 384-well plates (Corning) according to their optimal density, (A549 1000 cells/wells; MDA-MB-231, HeLa and HT-29 2000 cells/well and finally Jurkat, HL-60 SEM and RS4;11 20.000 cells/well) in 27 µL of complete medium per well.
(§3) The day after cell seeding and immediately before cell treatment, 10 mM stock solutions of the compounds were pre-diluted to a […] concentration in 250 µL of Hank’s in a 96-well plate (Corning). Subsequent 1:5 dilutions were carried out using a microlab STAR 96-CORE liquid handling system (Hamilton), a robotized liquid handling tool that was employed for all steps, from cell seeding to drug dilution and cell treatment to ensure high reproducibility while reducing time for large screening execution. This pre-dilution step was necessary to avoid DMSO-related cytotoxicity and compound precipitation in the cell culture medium. In every case, DMSO concentration never exceeded 0.1%.
(§4) Positive (Bortezomib 1 µM) and negative (0.1% DMSO) controls were included in all the screened plates to allow for monitoring the Z’ factor throughout the entire screening. Cells were treated with 3 µL of the previously made dilutions; thus, generating a 6-point 5-fold dose–response curve starting from 10 µM. Within a plate, each drug concentration was tested in duplicate in two independent experiments for each compound.
(§5) Treated cells were then placed inside the CO2 incubator for 72 h at 37 °C. Cell viability was assessed by resazurin assay, in which 3 µL of resazurin per well were added using the previously described automated platform. Plates were placed in the incubator at 37 °C for 2 h, and then the fluorescence of each plate was read using a Spark 10 M multimode microplate reader (Tecan Group Ltd., Mannedorf, Switzerland) with 535 nm excitation wavelength and 600 nm emission wavelength.

RS 4;11 = assay: Antiproliferative activity, resazurin assay, 72 h; assay type: cell-based, human
Experimental: as §1, §2, §3, §4, §5

HeLa = assay: Antiproliferative activity, resazurin assay, 72 h; assay type: cell-based, human
Experimental: as §1, §2, §3, §4, §5

HL-60 = assay: Antiproliferative activity, resazurin assay, 72 h; assay type: cell-based, human
Experimental: as §1, §2, §3, §4, §5

MDA-MB-231 = assay: Antiproliferative activity, resazurin assay, 72 h; assay type: cell-based, human
Experimental: as §1, §2, §3, §4, §5

A549 = assay: Antiproliferative activity, resazurin assay, 72 h; assay type: cell-based, human
Experimental: as §1, §2, §3, §4, §5

HT29 = assay: Antiproliferative activity, resazurin assay, 72 h; assay type: cell-based, human
Experimental: as §1, §2, §3, §4, §5

SEM cells = assay: Antiproliferative activity, resazurin assay, 72 h; assay type: cell-based, human
Experimental: as §1, §2, §3, §4, §5

[1] = Solubility as observed in the enzyme inhibition assays; assay type: physicochemical; set-up: key to solubility (footnote b): -: The compound was not soluble; details: for solubility (footnote b): CK inhibition assay at 10 and 30 µM; for solubility (in words): IC50 could not be determined
CKα1 = biological target: T1, CKα1 (Homo sapiens, UniProt P35790); assay: Choline kinase assay ([methyl-14C]choline into PCho, purified enzyme); assay type: biochemical; details: for IC50: concentration required to inhibit CKα1 enzyme by 50%; for % Inhibition at 10 µM: purified CKα1, inhibitor 10 µM; for % Inhibition at 10 µM / % Inhibition at 30 µM: end-point assay; for % Inhibition at 30 µM: purified CKα1, inhibitor 30 µM
T1 construct: an N-terminally His-tagged truncated form of CKα1 (Δ75–457) was cloned into a pET-28a vector; His tag (N); made in house; host or cells: E. coli BL21 (DE3) Star
Experimental: The protein was produced and purified as previously described. Briefly, an N-terminally His-tagged truncated form of CKα1 (Δ75–457) was cloned into a pET-28a vector and expressed at 37 °C in E. coli BL21 (DE3) Star cells using 1 mM isopropyl β-D-1-thiogalactopyranoside (IPTG). After centrifugation, the cellular pellet was resuspended in 50 mM Tris-HCl pH 7.5, 500 mM NaCl, 0.2 mM phenylmethylsulphonyl fluoride (PMSF), DNase, and 0.5 mM β-mercaptoethanol, sonicated and subjected to a two-step purification procedure to isolate the target enzyme. […] Protein elution was completed using buffer A + 400 mM imidazole. A second size-exclusion chromatography step was then carried out to achieve complete purity. To this end, we used a HiPrep 26/60 Sephacryl 100 HR column (GE Healthcare, Little Chalfont, Buckinghamshire, UK) and a 20 mM Tris/HCl pH 7.5, 150 mM NaCl running buffer.
To study the effect of the compounds on CKα, an in vitro enzymatic assay was performed using the purified enzyme as previously reported in [19, 28, 29]. Briefly, the incorporation of ^14C from [methyl-^14C]choline into PCho in either the absence (control) or presence of different inhibitors at varying concentrations was used to determine the CK activity. The reaction mixture included 20 ng of purified CKα1, 10 mM ATP, 10 mM MgCl2, 100 mM Tris-HCl pH 8.5, and increasing concentrations of compounds. The mixture was preincubated at 37 °C for 5 min. Then, [methyl-^14C]choline chloride (1 mM, 4500 dpm/nmol) was added and the reaction was left to proceed for 10 min at 37 °C. The assay was stopped by immersing the reaction tubes in boiling water. PCho was separated by Thin Layer Chromatography using methanol/0.6% NaCl/28% NH4OH in water (50:50:5, v/v/v) as solvent. The radioactivity associated into PCho was determined in a Beckman 6000-TA (Madrid, Spain) liquid scintillation counter. The 50% inhibitory concentrations (IC50 values) were determined from the % enzyme activity at different concentrations of synthetic inhibitors relative to the control by using a sigmoidal dose–response curve (ED50plus v1.0 software).

T1 sequence (P35790 75-457): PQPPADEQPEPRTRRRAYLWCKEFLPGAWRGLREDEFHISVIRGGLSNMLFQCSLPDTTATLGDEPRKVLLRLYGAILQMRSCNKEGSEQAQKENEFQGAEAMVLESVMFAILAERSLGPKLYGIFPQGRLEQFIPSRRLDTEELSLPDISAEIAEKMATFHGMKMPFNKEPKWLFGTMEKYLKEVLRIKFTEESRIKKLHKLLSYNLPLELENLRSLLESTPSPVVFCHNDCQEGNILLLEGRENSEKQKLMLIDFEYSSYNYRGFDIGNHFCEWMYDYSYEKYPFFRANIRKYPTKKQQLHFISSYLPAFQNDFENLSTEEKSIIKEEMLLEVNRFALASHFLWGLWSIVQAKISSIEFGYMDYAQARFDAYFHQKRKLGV

| SMILES | GI50 (Jurkat) [µM] | GI50 (RS 4;11) [µM] | GI50 (HeLa) [µM] | GI50 (HL-60) [µM] | GI50 (MDA-MB-231) [µM] | GI50 (A549) [µM] | GI50 (HT29) [µM] | GI50 (SEM cells) [µM] | solubility (footnote b) [1] | solubility (in words) [1] | IC50 (CKα1) [µM] | % Inhibition at 10 µM (CKα1) [%] | % Inhibition at 30 µM (CKα1) [%] |
| --- | --- | --- | --- | --- | --- | --- | --- | --- | --- | --- | --- | --- | --- |
| [Br-].[Br-].c1cc2c(s1)c(N1CCCCCC1)nc[n+]2Cc1ccc(CCc2ccc(C[n+]3cnc(N4CCCCCC4)c4sccc43)cc2)cc1 [Fa-23] | 6.15 ± 0.6 | 2.08 ± 0.03 | 1.17 ± 0.1 | 0.51 ± 0.05 | 1.13 ± 0.2 | 0.6 ± 0.06 | 1.56 ± 0.2 | 2.17 ± 0.02 | - ^b | insolubility | – | – | – |
| [Br-].[Br-].c1cc2c(N3CCCCCC3)nc[n+](Cc3ccc(CCc4ccc(C[n+]5cnc(N6CCCCCC6)c6ccsc65)cc4)cc3)c2s1 [Fg-19] | 4.72 ± 0.6 | 1.51 ± 0.2 | 0.78 ± 0.02 | 0.15 ± 0.01 | 0.5 ± 0.02 | 0.31 ± 0.04 | 1.42 ± 0.1 | 2.59 ± 0.03 | - ^b | insolubility | – | – | – |
| [Br-].[Br-].c1cc2c(N3CCCCC3)nc[n+](Cc3ccc(CCc4ccc(C[n+]5cnc(N6CCCCC6)c6ccsc65)cc4)cc3)c2s1 [Fg-31] | > 10 | 7.2 ± 1 | 1.4 ± 0.02 | 0.76 ± 0.05 | 1.09 ± 0.1 | 1.17 ± 0.01 | 4.5 ± 0.4 | > 10 | – | – | ≥ 10 | 51.54 | 74.39 |
| [Br-].[Br-].c1cc2c(N3CCCCCC3)nc[n+](Cc3ccc(CCCCc4ccc(C[n+]5cnc(N6CCCCCC6)c6ccsc65)cc4)cc3)c2s1 [Ff-35, ((1,1′-((butane-1,4-diylbis(4,1-phenylene))bis(methylene))bis(4-(azepan-1-yl)thieno[2,3-d]pyrimidin-1-ium)) bromide] | 1.54 ± 0.02 | 0.95 ± 0.05 | 0.3 ± 0.01 | 0.15 ± 0.01 | 0.097 ± 0.001 | 0.14 ± 0.02 | 0.78 ± 0.03 | 0.76 ± 0.03 | – | – | 0.46 ± 0.08 | – | – |
| [Br-].[Br-].c1cc2c(N3CCCC3)nc[n+](Cc3ccc(OCCOc4ccc(C[n+]5cnc(N6CCCC6)c6ccsc65)cc4)cc3)c2s1 [Ff-4] | > 10 | > 10 | > 10 | 0.79 ± 0.05 | 0.72 ± 0.03 | 0.23 ± 0.03 | > 10 | > 10 | – | – | ≥ 10 | 55.23 | 77.28 |
| [Br-].[Br-].c1cc2c(s1)c(N1CCCC1)nc[n+]2Cc1ccc(CCc2ccc(C[n+]3cnc(N4CCCC4)c4sccc43)cc2)cc1 [Fg-16] | > 10 | 7.27 ± 0.8 | 0.67 ± 0.02 | 0.21 ± 0.03 | 0.38 ± 0.01 | 0.25 ± 0.02 | 2.64 ± 0.06 | > 10 | – | – | 1.81 ± 0.17 | 80.28 | 85.87 |
| [Br-].[Br-].c1cc2c(N3CCCCC3)nc[n+](Cc3ccc(OCCOc4ccc(C[n+]5cnc(N6CCCCC6)c6ccsc65)cc4)cc3)c2s1 [Ff-5] | > 10 | 2.45 ± 0.02 | 1.03 ± 0.1 | 0.2 ± 0.01 | 1.1 ± 0.2 | 0.34 ± 0.06 | 1.73 ± 0.3 | 3.27 ± 0.03 | – | – | ≥ 5 | 64.21 | 85.71 |
